Experimental data as given in US7674819B2 (Warner-Lambert Company LLC, priority 2005, dated 2010).
Where a chain is given by its changes, count along the chain named. pIC50: −log10 of the molar value. Like-named read-outs stand apart in the source and are kept apart here.

Columns and labels:
[1] = molecular target: T1, hAR (Homo sapiens, UniProt P10275); experiment: Competitive binding of 3H-DHT to baculovirus/Sf9 generated hAR extracts; conditions: one hour at 4° C., mean of multiple tests
T1 sequence (P10275 1-920): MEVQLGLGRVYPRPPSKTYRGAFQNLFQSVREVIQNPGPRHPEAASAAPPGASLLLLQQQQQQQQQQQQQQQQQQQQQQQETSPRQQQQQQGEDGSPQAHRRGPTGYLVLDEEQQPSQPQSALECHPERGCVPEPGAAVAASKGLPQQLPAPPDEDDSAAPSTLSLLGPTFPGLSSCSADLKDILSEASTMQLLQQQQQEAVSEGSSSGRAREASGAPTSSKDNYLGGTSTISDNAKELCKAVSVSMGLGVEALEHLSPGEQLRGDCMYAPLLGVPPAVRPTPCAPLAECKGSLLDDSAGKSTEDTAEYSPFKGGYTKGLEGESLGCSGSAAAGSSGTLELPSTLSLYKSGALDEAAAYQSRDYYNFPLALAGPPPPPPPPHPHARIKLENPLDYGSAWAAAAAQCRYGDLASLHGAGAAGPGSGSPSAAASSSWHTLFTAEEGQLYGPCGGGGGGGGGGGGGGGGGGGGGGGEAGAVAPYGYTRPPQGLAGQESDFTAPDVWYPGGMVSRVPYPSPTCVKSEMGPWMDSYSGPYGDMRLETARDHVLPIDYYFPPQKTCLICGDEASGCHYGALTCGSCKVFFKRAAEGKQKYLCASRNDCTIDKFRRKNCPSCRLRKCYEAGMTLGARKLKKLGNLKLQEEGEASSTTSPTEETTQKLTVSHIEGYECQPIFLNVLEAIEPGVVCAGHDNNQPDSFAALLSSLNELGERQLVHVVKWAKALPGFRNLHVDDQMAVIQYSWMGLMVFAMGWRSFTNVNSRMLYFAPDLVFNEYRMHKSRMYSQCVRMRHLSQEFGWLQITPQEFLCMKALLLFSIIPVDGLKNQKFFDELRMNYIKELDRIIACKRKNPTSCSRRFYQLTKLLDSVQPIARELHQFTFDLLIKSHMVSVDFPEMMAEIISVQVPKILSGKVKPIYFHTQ
How it was run: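 Baculovirus/Sf9-expressed hAR extract incubated with test compound, hydroxylapatite and 1 nM 3H-DHT tracer for 1 h at 4° C, then washed free of unbound tracer. Affinity given as concentration inhibiting half of maximal 3H-DHT binding.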

[2] = molecular target: T2, androgen receptor (Homo sapiens, UniProt P10275); experiment: AR Antagonist Cell Assay (MDA-MB453-MMTV clone 54-19, luciferase reporter); type: cell-based; conditions: inhibition of induction by DHT (final concentration at 100 μM), 17 hr, compound 0.32-1000 nM, mean of multiple tests
T2 sequence (P10275 1-920 Q868H): T1 sequence (P10275 1-920) with Q868H
Description: The compounds ability to antagonize the effects of androgen on the androgen receptor were determined in a whole cell assay as described immediately below.
Experimental Procedure for AR Antagonist Cell Assay
This cell line is a stable transfected cell line with MDA-MB453 cell background (a human breast tumor cell line expressing androgen receptor). A MMTV minimal promoter containing ARE was first cloned in front of a firefly luciferase reporter gene. Then the cascade was cloned into transfection vector pUV120puro. […] Puromycin resistant stable cell line was selected.
Cell Culture Media and Reagents:
Plating medium: DMEM (phenol red free), 10% charcoal treated HyClone serum, 1% L-glutamine
Assay medium: DMEM (phenol red free), 1% charcoal treated HyClone serum, 1% L-glutamine, 1% penicillin/streptomycin
Cells are maintained in culture medium, splitting cells when they reach 80-90% confluence
To test compounds, 10,000 cells/well are plated to opaque 96 cell culture plate in 100 ul/well plating medium, culture for overnight at 37° C. in cell culture incubator
Add 10 ul/well freshly prepared DHT (final concentration at […]) to each well, incubate at 37° C. for 17 hr (overnight)
Add 50 ul/well 3× luciferase buffer, incubate at room temperature for 5 minutes, then count on Luminometer
The results are reported as the mean of multiple tests described below (the numbers of tests are indicated in the footnote). N.D. denotes that the compound was not tested.

[3] = IC50, concentration at which one half of maximum binding of 1 nM 3H-DHT to hAR is inhibited
[4] = concentration at which one half of maximum binding of 1 nM 3H-DHT to hAR is inhibited, read-out: IC50

| SMILES | pIC50 [1, 3] | pIC50 [2] | pIC50 [1, 4] | pIC50 ([2]; read-out: IC50) |
| --- | --- | --- | --- | --- |
| CC1(C)CN(Cc2ccccc2C#N)C(=O)C1Oc1ccc(C#N)c(C(F)(F)F)c1 (centres unmarked) [Example 47, 4-[1-(2-Cyano-benzyl)-4,4-dimethyl-2-oxo-pyrrolidin-3-yloxy]-2-trifluoromethyl-benzonitrile] | 7.08 | 7.38 |  |  |
| CC1(C)CN(Cc2ccc(C#N)cc2)C(=O)C1Oc1ccc(C#N)c(C(F)(F)F)c1 (centres unmarked) [Example 48, 4-[1-(4-Cyano-benzyl)-4,4-dimethyl-2-oxo-pyrrolidin-3-yloxy]-2-trifluoromethyl-benzonitrile] |  | 7.21 | 6.96 |  |
| COc1ccc(Cc2noc(CN3CC(C)(C)C(Oc4ccc(C#N)c(C(F)(F)F)c4)C3=O)n2)cc1 (centres unmarked) [Example 50, 4-{1-[3-(4-Methoxy-benzyl)-[1,2,4]oxadiazol-5-ylmethyl]-4,4-dimethyl-2-oxo-pyrrolidin-3-yloxy}-2-trifluoromethyl-benzonitrile] |  | 7.46 | 6.82 |  |
| CC1(C)CN(Cc2nc(-c3ccccc3)no2)C(=O)C1Oc1ccc(C#N)c(C(F)(F)F)c1 (centres unmarked) [Example 52, 4-[4,4-Dimethyl-2-oxo-1-(3-phenyl-[1,2,4]oxadiazol-5-ylmethyl)-pyrrolidin-3-yloxy]-2-trifluoromethyl-benzonitrile] | 6.80 | 7.27 |  |  |
| CC1(C)CN(Cc2ccc3ccccc3n2)C(=O)C1Oc1ccc(C#N)c(C(F)(F)F)c1 (centres unmarked) [Example 54, 4-(4,4-Dimethyl-2-oxo-1-quinolin-2-ylmethyl-pyrrolidin-3-yloxy)-2-trifluoromethyl-benzonitrile] |  |  | 6.66 | < 6.00 |
| CC1(C)CN(Cc2nnc(-c3ccccc3)o2)C(=O)C1Oc1ccc(C#N)c(C(F)(F)F)c1 (centres unmarked) [Example 56, 4-[4,4-Dimethyl-2-oxo-1-(5-phenyl-[1,3,4]oxadiazol-2-ylmethyl)-pyrrolidin-3-yloxy]-2-trifluoromethyl-benzonitrile] | 6.77 | 6.13 |  |  |
| CC1(C)CN(Cc2ccc3nonc3c2)C(=O)C1Oc1ccc(C#N)c(C(F)(F)F)c1 (centres unmarked) [Example 57, 4-(1-Benzo[1,2,5]oxadiazol-5-ylmethyl-4,4-dimethyl-2-oxo-pyrrolidin-3-yloxy)-2-trifluoromethyl-benzonitrile] | 7.51 |  |  | < 6.00 |
| CC1(C)CN(Cc2ccc(-n3cccn3)cc2)C(=O)C1Oc1ccc(C#N)c(C(F)(F)F)c1 (centres unmarked) [Example 60, 4-[4,4-Dimethyl-2-oxo-1-(4-pyrazol-1-yl-benzyl)-pyrrolidin-3-yloxy]-2-trifluoromethyl-benzonitrile] |  |  | 6.94 | < 6.00 |
| Cc1ccc(-c2nnc(CN3CC(C)(C)C(Oc4ccc(C#N)c(C(F)(F)F)c4)C3=O)o2)cc1 (centres unmarked) [Example 61, 4-[4,4-Dimethyl-2-oxo-1-(5-p-tolyl-[1,3,4]oxadiazol-2-ylmethyl)-pyrrolidin-3-yloxy]-2-trifluoromethyl-benzonitrile] |  | 7.29 | 7.00 |  |
| CC1(C)CN(Cc2nc(-c3ccc([N+](=O)[O-])cc3)cs2)C(=O)C1Oc1ccc(C#N)c(C(F)(F)F)c1 (centres unmarked) [Example 65, 4-{4,4-Dimethyl-1-[4-(4-nitro-phenyl)-thiazol-2-ylmethyl]-2-oxo-pyrrolidin-3-yloxy}-2-trifluoromethyl-benzonitrile] | 7.42 |  |  | 6.64 |
| COc1ccc(-c2nc(CN3CC(C)(C)C(Oc4ccc(C#N)c(C(F)(F)F)c4)C3=O)no2)cc1 (centres unmarked) [Example 66, 4-{1-[5-(4-Methoxy-phenyl)-[1,2,4]oxadiazol-3-ylmethyl]-4,4-dimethyl-2-oxo-pyrrolidin-3-yloxy}-2-trifluoromethyl-benzonitrile] |  | 7.08 | 6.85 |  |
| CSCN1CC(C)(C)C(Oc2ccc(C#N)c(C(F)(F)F)c2)C1=O (centres unmarked) [Example 68, 4-(4,4-Dimethyl-1-methylsulfanylmethyl-2-oxo-pyrrolidin-3-yloxy)-2-trifluoromethyl-benzonitrile] |  | 7.19 | 6.88 |  |
| CC1(C)CN(S(=O)(=O)c2ccccc2)C(=O)C1Oc1ccc(C#N)c(C(F)(F)F)c1 (centres unmarked) [Example 73, 4-(1-Benzenesulfonyl-4,4-dimethyl-2-oxo-pyrrolidin-3-yloxy)-2-trifluoromethyl-benzonitrile] |  | 7.31 | 6.69 |  |
| COc1cccc(S(=O)(=O)N2CC(C)(C)C(Oc3ccc(C#N)c(C(F)(F)F)c3)C2=O)c1 (centres unmarked) [Example 74, 4-[1-(3-Methoxy-benzenesulfonyl)-4,4-dimethyl-2-oxo-pyrrolidin-3-yloxy]-2-trifluoromethyl-benzonitrile] |  | 7.02 | 6.97 |  |
| CCCS(=O)(=O)N1CC(C)(C)C(Oc2ccc(C#N)c(C(F)(F)F)c2)C1=O (centres unmarked) [Example 75, 4-[4,4-Dimethyl-2-oxo-1-(propane-1-sulfonyl)-pyrrolidin-3-yloxy]-2-trifluoromethyl-benzonitrile] | 7.19 | 7.80 |  |  |
| CCS(=O)(=O)N1CC(C)(C)C(Oc2ccc(C#N)c(C(F)(F)F)c2)C1=O (centres unmarked) [Example 78, 4-(1-Ethanesulfonyl-4,4-dimethyl-2-oxo-pyrrolidin-3-yloxy)-2-trifluoromethyl-benzonitrile] |  |  | 6.99 | 6.61 |
| CC1(C)CN(S(=O)(=O)C2CC2)C(=O)C1Oc1ccc(C#N)c(C(F)(F)F)c1 (centres unmarked) [Example 83, 4-(1-Cyclopropanesulfonyl-4,4-dimethyl-2-oxo-pyrrolidin-3-yloxy)-2-trifluoromethyl-benzonitrile] | 7.30 |  |  | 6.69 |
| CC1(C)CN(S(=O)(=O)c2ccsc2)C(=O)C1Oc1ccc(C#N)c(C(F)(F)F)c1 (centres unmarked) [Example 84, 4-[4,4-Dimethyl-2-oxo-1-(thiophene-3-sulfonyl)-pyrrolidin-3-yloxy]-2-trifluoromethyl-benzonitrile] | 7.07 | 7.26 |  |  |
| Cc1csc(S(=O)(=O)N2CC(C)(C)C(Oc3ccc(C#N)c(C(F)(F)F)c3)C2=O)c1 (centres unmarked) [Example 86, 4-[4,4-Dimethyl-1-(4-methyl-thiophene-2-sulfonyl)-2-oxo-pyrrolidin-3-yloxy]-2-trifluoromethyl-benzonitrile] |  |  | 6.85 | 6.98 |
